Measurements published in PubChem BioAssay AID212 (DTP/NCI, 2004).
Values joined by “and” are separate entries in the source; they are usually repeats but may differ in a detail not shown here. Equal entries are not always repeated. Results filed as inconclusive are left out. Where a SMILES comes first, the peptide text is derived from it. The star is where a group is joined. Trt = c1ccc(C(c2ccccc2)(c2ccccc2)*)cc1; Cbz = O=C(OCc1ccccc1)*; Bn = c1ccc(C*)cc1; βAla = NCCC(=O)O

System: BDF1 mice, colon carcinoma 38 sc, T/C %
Test: NCI In Vivo Anticancer Drug Screen. Data for tumor model Colon Carcinoma 38 (subcutaneous) in B6D2F1 (BDF1) mice
Settings: endpoint: median tumor weight (est.), schedule: Q07DX002 (ip), higher = larger tumour
In short: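 Compound antitumor activity was assessed in mice carrying transplantable tumors. Survival or tumor size was recorded, and each value is the treated-group measurement divided by that of the vehicle-treated control group.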

[1] = dose: 50.0 mg/kg/injection, vehicle: saline with Tween-80
[2] = dose: 100.0 mg/kg/injection, vehicle: saline with Tween-80
[3] = dose: 800.0 mg/kg/injection, vehicle: saline with Tween-80
[4] = dose: 25.0 mg/kg/injection, vehicle: Klucel (hydroxypropylcellulose) (HPC)
[5] = dose: 400.0 mg/kg/injection, vehicle: Klucel (hydroxypropylcellulose) (HPC)
[6] = dose: 12.5 mg/kg/injection, vehicle: Klucel (hydroxypropylcellulose) (HPC)
[7] = dose: 50.0 mg/kg/injection, vehicle: Klucel (hydroxypropylcellulose) (HPC)
[8] = dose: 100.0 mg/kg/injection, vehicle: Klucel (hydroxypropylcellulose) (HPC)
[9] = dose: 200.0 mg/kg/injection, vehicle: Klucel (hydroxypropylcellulose) (HPC)
[10] = dose: 25.0 mg/kg/injection, vehicle: saline with Tween-80

`CCOC(=O)c1cn(C)c2c1C(O)=C(C(=O)OC)CC(=O)N2` was tested, and the T/C [1] was 81 % of control, the T/C [2] was 119 % of control and the T/C (dose: 400.0 mg/kg/injection, vehicle: saline with Tween-80) was 88 % of control. For the same compound, the T/C [3] was 97 % of control.

For `COc1ccc(C2C(=O)c3ccc(OC)cc3OC2c2ccccc2)cc1` (stereo not drawn), the T/C (dose: 25.0 mg/kg/injection, vehicle: other) was 84 % of control, the T/C (dose: 50.0 mg/kg/injection, vehicle: other) was 56 % of control and the T/C (dose: 100.0 mg/kg/injection, vehicle: other) was 47 % of control. For the same compound, the T/C (dose: 200.0 mg/kg/injection, vehicle: other) was 50 % of control and the T/C (dose: 400.0 mg/kg/injection, vehicle: other) was 61 % of control.

In the case of `CSc1ncc2ncn(C3OC(CO)C(O)C3O)c2n1` (stereo not drawn), the T/C [4] was 194 % of control and the T/C [5] was 56 % of control.

With `O=c1[nH]cnc2n[nH]nc12` the T/C [6] was 122 % of control, the T/C [4] was 110 % of control and the T/C [7] was 100 % of control. The T/C [8] was 87 % of control, the T/C [9] was 77 % of control and the T/C [5] was 88 % of control.

In the case of `CC(C)NCC(O)COc1ccc(O)c(O)c1` (stereo not drawn), the T/C (dose: 100.0 mg/kg/injection, vehicle: saline) was 121 % of control and the T/C (dose: 200.0 mg/kg/injection, vehicle: saline) was 93 % of control.

With `CC[C@H]1CN2CCc3cc(OC)c(OC)cc3[C@@H]2C[C@@H]1C[C@H]1NCCc2cc(OC)c(OC)cc21` the T/C (dose: 1.75 mg/kg/injection, vehicle: saline) was 57 % of control, the T/C (dose: 3.5 mg/kg/injection, vehicle: saline) was 74 % of control and the T/C (dose: 7.0 mg/kg/injection, vehicle: saline) was 84 % of control. The T/C (dose: 14.0 mg/kg/injection, vehicle: saline) was 89 % of control and the T/C (dose: 28.0 mg/kg/injection, vehicle: saline) was 74 % of control.

In the case of `N#C[Se-].c1ccc([Te+](c2ccccc2)c2ccccc2)cc1`, the T/C (dose: 3.12 mg/kg/injection, vehicle: Klucel (hydroxypropylcellulose) (HPC)) was 181 % of control, the T/C (dose: 6.25 mg/kg/injection, vehicle: Klucel (hydroxypropylcellulose) (HPC)) was 80 % of control and the T/C [6] was 65 % of control. For the same compound, the T/C [4] was 186 % of control.

With `CC(C#N)(C#N)N=Nc1ccc(Cl)cc1Cl` the T/C [10] was 86 % of control and 101 % of control, the T/C [1] was 50 % of control and 69 % of control and the T/C [2] was 66 % of control and 73 % of control. For the same compound, the T/C (dose: 200.0 mg/kg/injection, vehicle: saline with Tween-80) was 58 % of control and 64 % of control and the T/C [3] was 63 % of control and 78 % of control.

`CSCS(=O)C[C@H](CO)NC(=O)/C=C/c1c(C)[nH]c(=O)[nH]c1=O` (stereo partly drawn) was tested, and the T/C (dose: 0.25 mg/kg/injection, vehicle: saline) was 110 % of control and 86 % of control, the T/C (dose: 2.0 mg/kg/injection, vehicle: saline) was 105 % of control and the T/C (dose: 4.0 mg/kg/injection, vehicle: saline) was 62 % of control and 74 % of control.

In the case of `COC(=O)C(CSC(c1ccccc1)(c1ccccc1)c1ccccc1)NC(=O)C(CSCc1ccccc1)NC(=O)CCNC(=O)OCc1ccccc1` (stereo not drawn) ({Cbz-βAla}-Cys(Bn)-Cys(Trt)-OMe; configuration not given here), the T/C [4] was 106 % of control, the T/C [7] was 109 % of control and the T/C [8] was 96 % of control. For the same compound, the T/C [9] was 87 % of control and the T/C [5] was 123 % of control.

In the case of `O=C1CN(Cc2ccc3c(c2)OCO3)NO1`, the T/C (dose: 12.5 mg/kg/injection, vehicle: saline with Tween-80) was 76 % of control and 89 % of control and the T/C [10] was 81 % of control and 84 % of control.
